Data taken from patent US11591596B2, “Compounds and compositions including phosphorothioated oligodeoxynucleotide, and methods of use thereof” (City of Hope, priority 2015, dated 2023).

Test system: miR-126
Test: In vitro and in vivo uptake and miR-126 silencing (K562, HUVEC, CD34+CD38- cells, murine CML BM, LTHSC, EC, mice)
Parameters: species or system human and mouse
Conditions: 500 nM in vitro; 5 mg/kg iv in vivo
Method: FIGS. 23A-23K. […] Uptake test measured by flow cytometric analysis at 4 hours (FIG. 23A) and 24 hours (FIG. 23B) after addition of CpG-miR-126 inhibitor-Cy3 (CpG), Ab-NPs (Ab-NP) or TF-NPs (TF-NP) containing miR-126 inhibitor-Cy3, or naked miR-126 inhibitor-Cy3 (labeled as Control in FIGS. 23A and B) in K562 cells. The experiment was replicated twice. miR-126 expression in K562 was measured by Q-RT-PCR at 24 hours (n=3) (FIG. 23C). Uptake in HUVEC (FIG. 23D), human normal (FIG. 23E) and CML (FIG. 23F) CD34^+CD38^− cells at 4 hours after addition of CpG-miR-126 inhibitor-Cy3 (500 nM) was measured by flow cytometry. miR-126 expression in HUVEC (FIG. 23G), normal (FIG. 23H) and CML (FIG. 23I) CD34^+CD38^− cells treated with CpG-miR-126 inhibitor (500 nM) for 24 hours is shown (n=4). […]
FIGS. 25A-25O. […] Murine CML BM, LTHSC and EC cells were treated with CpG-miR-126 inhibitor-Cy3 (500 nM) for 4 hours and then Cy3^+ cells were detected by flow cytometry (FIG. 25A). The cells were also collected at 24 hours and miR-126 expression was determined by Q-RT-PCR (FIG. 25B). Cell cycling was measured by EDU staining at 72 hours after addition of CpG-miR-126 inhibitor in CML BM LTHSC. […] CML mice were treated with CpG-miR-126 inhibitor-Cy3 with one dose (5 mg/kg, iv injection) and Cy3 uptake in BM, LTHSC and EC was measured at 16 hours after treatment by flow cytometry (FIG. 25D). […]

5′ G*G*T GCA TCG ATG CAGG*G*G* G*G (SEQ ID NO: 1) xxxxx mCmGmC mAmUmU mAmUmU mAmCmU mCmAmC mGmGmU mAmCmG mA (SEQ ID NO: 17) 3′ [CpG-anti-miR126]
uptake and gene silencing effects: Effective in vitro and in vivo uptake and gene silencing effects
